Results taken from the supplement of paper PMC10307832.

What was measured:
Test in all cases: relative viability (nuclei count vs DMSO), 5 days (fraction); higher = more cells survive
[1] = compound: COc1cc([C@@H]2c3cc4c(cc3[C@@H](O[C@@H]3O[C@@H]5CO[C@@H](C)O[C@H]5[C@H](O)[C@H]3O)[C@H]3COC(=O)[C@H]23)OCO4)cc(OC)c1O [Etoposide] + Nc1nc2[nH]cc(CCc3ccc(C(=O)N[C@@H](CCC(=O)O)C(=O)O)cc3)c2c(=O)[nH]1 [Pemetrexed] (partner 0.2 µM)
Summary of the method: (§1)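 Values are medians from duplicate plates. Each reflects relative viability, defined as the nuclei count of treated wells over that of vehicle wells. Lung cancer cell lines in 1536-well plates were pin-tool dosed one day after seeding with one drug alone or with a fixed anchor-drug dose plus five library-drug doses (not always all listed) in √10 steps, then fixed, stained and imaged at 4× after 5 days.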

[2] = compound: CC1=C(N=C(N=C1N)[C@H](CC(=O)N)NC[C@@H](C(=O)N)N)C(=O)N[C@@H]([C@H](C2=CN=CN2)OC3C(C(C(C(O3)CO)O)O)OC4C(C(C(C(O4)CO)O)OC(=O)N)O)C(=O)N[C@H](C)[C@H]([C@H](C)C(=O)N[C@@H]([C@@H](C)O)C(=O)NCCC5=NC(=CS5)C6=NC(=CS6)C(=O)NCCC[S+](C)C)O [Bleomycin] + C[C@]1(O)C[C@@H](c2nc(-c3ccc4ccc(-c5ccccc5)nc4c3)c3c(N)nccn32)C1 [Linsitinib] (partner 1 µM); details: main component drawn
Summary of the method: as §1

[3] = compound: COc1cc([C@@H]2c3cc4c(cc3[C@@H](O[C@@H]3O[C@@H]5CO[C@@H](C)O[C@H]5[C@H](O)[C@H]3O)[C@H]3COC(=O)[C@H]23)OCO4)cc(OC)c1O [Etoposide] + C[C@@H](Oc1cc(-c2cnn(C3CCNCC3)c2)cnc1N)c1c(Cl)ccc(F)c1Cl [Crizotinib] (partner 1 µM)
Summary of the method: as §1

[4] = compound: COc1cc([C@@H]2c3cc4c(cc3[C@@H](O[C@@H]3O[C@@H]5CO[C@@H](C)O[C@H]5[C@H](O)[C@H]3O)[C@H]3COC(=O)[C@H]23)OCO4)cc(OC)c1O [Etoposide] + O=C(c1cc(Cc2n[nH]c(=O)c3ccccc23)ccc1F)N1CCN(C(=O)C2CC2)CC1 [Olaparib] (partner 8 µM)
Summary of the method: as §1

Cell Line	relative viability ([1]; first compound 0.01 µM)	relative viability ([1]; first compound 0.03162 µM)	relative viability ([1]; first compound 0.1 µM)	relative viability ([1]; first compound 0.3162 µM)	relative viability ([1]; first compound 1 µM)	relative viability ([2]; first compound 0.01 µM)	relative viability ([2]; first compound 0.03162 µM)	relative viability ([2]; first compound 0.1 µM)	relative viability ([2]; first compound 0.3162 µM)	relative viability ([2]; first compound 1 µM)	relative viability ([3]; first compound 0.01 µM)	relative viability ([3]; first compound 0.03162 µM)	relative viability ([3]; first compound 0.1 µM)	relative viability ([3]; first compound 0.3162 µM)	relative viability ([3]; first compound 1 µM)	relative viability ([4]; first compound 0.01 µM)	relative viability ([4]; first compound 0.03162 µM)	relative viability ([4]; first compound 0.1 µM)	relative viability ([4]; first compound 0.3162 µM)	relative viability ([4]; first compound 1 µM)
NCI-H1734	0.391	0.49	0.408	0.415	0.328	0.73	0.669	0.553	0.311	0.227	0.647	0.643	0.541	0.497	0.271	0.285	0.607	0.589	0.373	0.263
NCI-H2228	0.375	0.358	0.355	0.299	0.181	0.675	0.647	0.714	0.559	0.4	0.633	0.551	0.457	0.373	0.218	0.586	0.524	0.776	0.296	0.146
EMC-BAC-2	0.442	0.466	0.476	0.37	0.284	0.746	0.696	0.688	0.38	0.265	0.661	0.527	0.382	0.2	0.161	0.443	0.413	0.352	0.249	0.214
NCI-H1993	–	0.662	0.502	0.543	0.399	0.736	0.745	0.693	0.59	0.518	0.758	0.856	0.734	0.712	0.473	–	0.884	0.777	0.658	0.54
NCI-H596	0.463	0.539	0.488	0.546	0.477	0.79	0.73	0.554	0.442	0.43	1.02	0.96	–	0.808	0.681	0.64	0.698	0.724	0.537	0.561
NCI-H650	0.901	1.01	0.608	0.673	0.347	0.585	0.791	0.582	0.328	0.199	0.568	0.831	0.416	0.339	0.174	0.393	0.317	0.314	0.184	0.152
NCI-H1792	0.743	0.768	–	0.616	0.229	0.515	0.484	0.281	0.202	0.189	1.02	0.913	0.825	0.831	0.623	0.348	0.248	–	0.212	0.152
SW 1573	0.877	0.785	0.397	0.259	0.148	0.705	0.567	0.417	0.311	0.176	0.634	0.618	0.595	0.29	0.198	0.45	0.397	0.395	0.16	0.0987
NCI-H2009	0.976	0.957	1.12	0.703	0.57	1.12	1.22	1.17	0.864	0.58	1.02	0.994	1.08	0.713	0.329	0.64	0.627	0.692	0.45	0.275
LOU-NH91	0.403	0.414	0.469	0.359	0.346	0.78	0.611	0.522	0.37	0.317	0.74	0.767	0.701	0.632	0.438	0.893	0.905	0.824	0.651	0.383
NCI-H3122	0.21	0.207	0.206	0.19	0.179	1.05	1.03	1.01	0.744	0.457	0.307	0.288	0.231	0.262	0.246	0.456	0.587	0.634	0.297	0.21
LCLC-97TM1	0.176	0.196	0.168	0.18	0.118	0.138	0.165	0.141	0.109	0.0963	–	0.382	0.241	0.155	0.111	0.423	0.458	0.229	0.113	0.0808
NCI-H647	0.173	0.161	0.188	0.121	0.121	0.649	0.487	0.321	0.13	0.102	1.05	1.01	0.858	0.298	0.151	0.459	0.516	0.33	0.0871	0.0592
NCI-H838	0.277	0.259	0.274	0.251	0.239	0.652	0.314	0.191	0.189	0.159	0.85	0.846	0.973	0.522	0.345	0.757	0.782	0.64	0.31	0.2
H3255	0.541	0.619	0.564	0.536	0.404	0.702	0.879	0.902	0.538	0.387	0.802	0.841	0.667	0.537	0.231	0.524	0.571	0.588	0.379	0.286
SK-MES-1	0.912	1.02	0.844	0.708	0.256	0.923	0.974	0.819	0.287	0.216	0.943	0.957	0.887	0.433	0.273	0.697	0.785	0.56	0.257	0.19
NCI-H1437	0.309	0.318	0.303	0.325	0.303	0.88	0.936	0.85	0.417	0.357	1.04	0.918	0.926	0.403	0.361	0.597	0.646	0.56	0.394	0.323
LU99A	0.161	0.18	0.186	0.163	0.167	0.379	0.348	0.252	0.166	0.127	0.577	0.512	0.388	0.288	0.189	0.277	0.28	0.205	0.139	0.118
HCC-827	0.262	0.266	0.127	0.236	0.192	0.943	1.02	0.88	0.666	0.308	0.879	0.941	0.662	0.394	0.228	0.685	0.623	0.43	0.16	0.164
LK-2	0.36	0.315	0.208	0.224	0.186	0.418	0.373	0.318	0.198	0.255	0.264	0.265	0.263	0.219	0.23	0.618	0.81	0.511	0.287	0.205
HCC-366	0.174	0.182	0.272	0.157	0.0669	0.29	0.229	0.171	0.0412	0.0312	0.43	0.434	0.217	0.0627	0.0226	0.292	0.304	0.217	0.0515	0.0449
BEN	0.87	1.05	–	0.727	0.669	0.862	0.868	0.896	0.637	0.682	0.701	0.827	–	0.828	0.693	0.938	1.01	–	0.936	0.672
NCI-H2347	0.454	0.487	0.401	0.386	0.383	0.848	0.846	0.831	0.484	0.464	0.677	0.455	0.408	0.384	0.339	0.55	0.543	0.58	0.353	0.411
201T	0.325	0.343	0.355	0.318	0.32	0.959	1.05	1.05	1	0.83	1.02	1.03	0.975	0.898	0.678	0.818	0.804	0.771	0.633	0.384
NCI-H520	0.633	0.801	0.708	0.65	0.485	0.949	0.987	0.973	0.687	0.566	0.759	0.729	0.944	0.725	0.629	0.296	0.328	0.437	0.293	0.225
HCC-15	0.213	0.222	0.218	0.183	0.171	0.793	0.804	0.763	0.418	0.288	0.799	0.821	0.856	0.342	0.125	0.699	0.613	0.629	0.266	0.162
LCLC-103H	0.447	0.477	0.523	0.473	0.469	1.03	1.06	1.06	1.13	0.564	1.09	1.02	0.984	1.06	0.988	0.786	0.803	0.77	0.665	0.383
NCI-H460	0.0661	0.0549	0.061	0.0772	0.0604	0.448	0.356	0.158	0.0344	0.0252	0.708	0.498	0.476	0.0396	0.0142	0.395	0.314	0.247	0.0642	0.047
EPLC-272H	0.344	0.327	0.318	0.315	0.308	1.21	1.06	1.08	1.45	0.196	1.07	1.03	0.628	0.703	0.489	0.833	0.685	0.704	0.474	0.254
